One assay concerns the target mouse H3 receptor (Mus musculus, UniProt P58406). The experiment in a line: Radioligand competition binding assay, mouse H3 receptor. Conditions: competition binding vs [3H]Nα-methylhistamine (~2 nM), membranes of cells expressing mouse H3 receptor. How it is done: (§1) Representative compounds of the present invention that were prepared by the procedures of the Examples were evaluated in binding assays against cells expressing the mouse and human H3 receptor by the following procedure.
(§2) Cells were washed with cold PBS buffer twice, scraped off the plates, and centrifuged at 1000×g for 5 minutes. Cells were resuspended in ice-cold buffer of 10 mM Tris, pH 7.4, 5 mM EDTA, protease inhibitor cocktail tablets (Roche Molecular Biochemicals) and incubated on ice for 10 minutes. The mixture was then homogenized with a dounce homogenizer or a polytron tissue grinder and centrifuged at 1000×g for 10 min at 4° C. The supernatant was centrifuged at 32,000×g for 30 min at 4° C. The membrane pellet was resuspended in a buffer of 50 mM Tris, pH 7.4 with protease inhibitor cocktail tablets and stored at −80° C. until use. Protein concentration was determined by the methods of Bradford.
(§3) Membranes were homogenized in buffer containing 50 mM Tris/HCl, 1 mM EDTA pH 7.4, and protease inhibitor cocktail tablets. Dissociation constants of radioligand (KD values) and maximum binding sites (Bmax) were determined in saturation binding experiments. Ki and IC50 were determined in competition binding assays using a fixed amount of radioligand.
(§4) Saturation binding assays were carried out in 96-well polypropylene plates in triplicate or quadruplicate. Reaction mixtures contained 100 μl of membrane suspension (˜100 μg/well), 50 μl of 4% DMSO, 50 μl of increasing amounts of [^3H]N^α-methylhistamine (final concentration of 0.01-20 nM). Nonspecific binding was defined with 10 uM clobenpropit. Competition binding assays were performed in a reaction mixture containing 100 μl of membrane suspension, 50 μl of [H]N^α-methylhistamine (final concentration of ˜2 nM), and 50 μl compounds. […] Incubations were carried out for 1.5 hours at room temperature. Reactions were terminated by rapid filtration over glass fibre GF/C filters (Perkin Elmers, MA) that had been presoaked in 0.3% PEI, using a Brandel cell harvester. The filters were washed with 500 ml of ice-cold buffer containing 50 mM Tris-HCl, pH 7.4, and were subsequently dried, impregnated with Meltilex wax scintillate (Perkin Elmers, MA) and counted with a Betaplate scintillation counter (Perkin Elmers, MA).
(§5) All data were analyzed by nonlinear least square curve fitting using Prism 4.0 software. The KD for [^3H]N^α-methylhistamine and the Bmax were derived from equation RL=RfL/(KD+L). RL is concentration of receptor-bound ligand at equilibrium, L is the free ligand concentration, Rf is the total receptor concentration. For competition binding experiments, IC50 (the concentration of compound producing 50% inhibition of specific binding) was derived from fitting to a 4-parameter logistic equation. Apparent Ki values were calculated using the Cheng-Prussof equation of Ki=IC50/(1+(L)/Kd), L is the ligand concentration. Agonist stimulation and antagonist inhibition in FLIPR were fitted to sigmoidal dose response using equation Y=Bottom+(Top-Bottom)/(1+10^((LogEC50-X))), X is the logarithm of concentration of compounds. Y is the response.
For orientation: Displacement assays read how much labelled ligand stays bound in the presence of the test substance.

The next assay has as its target T1, human H3 receptor (Homo sapiens, UniProt Q9Y5N1).
T1 construct: Expression of this receptor was provided by utilization of the RAGE methodology; endogenous in cells; host or cells: HT1080 (human fibrosarcoma) cells, H3 expression switched on by RAGE; co-transfected with chimeric G-protein Gqαi5
The experiment in a line: Radioligand competition binding assay, human H3 receptor (HT1080 cell membranes). Conditions: competition binding vs [3H]Nα-methylhistamine (~2 nM), membranes of HT1080 cells expressing human H3 receptor. How it is done: as §1
An HT1080 cell line was produced that expresses the human H3 receptor. Expression of this receptor was provided by utilization of the RAGE methodology (Harrington et al., 2001) Nature Biotechol. 19:440-5. This cell line was transfected with the chimeric G-protein Gqαi5 (Conklin et al., 1993) Nature 363:274-6 to facilitate assessment of receptor activation through the analysis of intercellular Ca^++ levels using a fluorescence assay. The HT1080 cells expressing human histamine H3 receptor and Gqαi5 were grown in alpha-modified MEM containing 10% FBS, 3 ug/ml puromycin, 7 ug/ml blasticidin, and 3.2 uM methotrexate at 37° C. in 5% CO2/95% atmosphere.
as §2, §3, §4, §5

In general, Ki refers to the dissociation constant of the complex between target and ligand, obtained from inhibition or displacement. A high value points to a looser hold on the target.

Sequence of mouse H3 receptor (P58406 whole entry): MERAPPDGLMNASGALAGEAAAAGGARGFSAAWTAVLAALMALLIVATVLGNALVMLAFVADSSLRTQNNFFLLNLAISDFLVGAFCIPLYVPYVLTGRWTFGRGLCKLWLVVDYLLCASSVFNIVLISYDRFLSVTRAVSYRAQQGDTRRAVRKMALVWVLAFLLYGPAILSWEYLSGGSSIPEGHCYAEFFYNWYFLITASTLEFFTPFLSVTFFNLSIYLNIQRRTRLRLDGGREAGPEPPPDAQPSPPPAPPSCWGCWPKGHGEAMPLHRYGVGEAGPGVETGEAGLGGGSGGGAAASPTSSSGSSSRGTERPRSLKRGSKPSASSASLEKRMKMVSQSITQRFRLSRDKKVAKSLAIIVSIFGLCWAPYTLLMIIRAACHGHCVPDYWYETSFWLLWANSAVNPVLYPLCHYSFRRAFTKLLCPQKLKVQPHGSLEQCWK
T1 sequence (Q9Y5N1 whole entry): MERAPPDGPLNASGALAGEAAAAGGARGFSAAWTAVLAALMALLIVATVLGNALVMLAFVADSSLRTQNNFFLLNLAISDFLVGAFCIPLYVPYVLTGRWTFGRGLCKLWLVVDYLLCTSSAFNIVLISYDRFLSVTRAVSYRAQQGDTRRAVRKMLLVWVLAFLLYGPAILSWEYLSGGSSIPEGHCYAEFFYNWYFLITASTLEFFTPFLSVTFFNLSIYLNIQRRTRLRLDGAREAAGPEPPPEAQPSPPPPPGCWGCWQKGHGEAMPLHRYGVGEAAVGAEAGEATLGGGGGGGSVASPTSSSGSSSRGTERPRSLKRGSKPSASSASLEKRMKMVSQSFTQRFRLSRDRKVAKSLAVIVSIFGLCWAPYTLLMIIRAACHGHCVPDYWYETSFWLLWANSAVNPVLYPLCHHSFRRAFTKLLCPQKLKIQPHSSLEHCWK

On to `CC1CCCN1CCc1cc2cc(-c3c4c(nc5ccnn35)CCCC4)ccc2o1` (stereo not drawn) [9-{2-[2-(2-Methyl-pyrrolidin-1-yl)-ethyl]-benzofuran-5-yl}-5,6,7,8-tetrahydro-pyrazolo[5,1-b]quinazoline], for which the Ki on mouse H3 receptor was less than 500 nM; at human H3 receptor, less than 50 nM.

As for `C[C@@H]1CCCN1CCCOc1ccc(-c2c3c(nc4ccnn24)CCCC3)cc1` [9-{4-[3-(2-(R)-Methyl-pyrrolidin-1-yl)-propoxy]-phenyl}-5,6,7,8-tetrahydro-pyrazolo[5,1-b]quinazoline], the inhibition constant Ki on mouse H3 receptor and at human H3 receptor was less than 50 nM in each case.

As for `CC1CCCN1CCCOc1ccc(-c2c3c(nc4ccnn24)CCCC3)cc1` (stereo not drawn) [9-{4-[3-(2-Methyl-pyrrolidin-1-yl)-propoxy]-phenyl}-5,6,7,8-tetrahydro-pyrazolo[5,1-b]quinazoline], the Ki at mouse H3 receptor and on human H3 receptor was less than 50 nM throughout.

For the compound `c1cc(OCCCN2CCCCC2)cc(-c2c3c(nc4ccnn24)CCCCC3)c1` [10-[3-(3-Piperidin-1-yl-propoxy)-phenyl]-6,7,8,9-tetrahydro-5H-1,4,10a-triaza-cyclohepta[f]indene], the Ki on mouse H3 receptor was less than 5000 nM; on human H3 receptor, less than 500 nM.

For `c1cc(OCCCN2CCCC2)cc(-c2c3c(nc4ccnn24)CCCCC3)c1` [10-[3-(3-Pyrrolidin-1-yl-propoxy)-phenyl]-6,7,8,9-tetrahydro-5H-1,4,10a-triaza-cyclohepta[f]indene], the values for the Ki at mouse H3 receptor and at human H3 receptor were less than 5000 nM and less than 500 nM, respectively.

For `c1cc2nc3c(c(-c4ccc(OCCCN5CCCCC5)cc4)n2n1)CCCCC3` [10-[4-(3-Piperidin-1-yl-propoxy)-phenyl]-6,7,8,9-tetrahydro-5H-1,4,10a-triaza-cyclohepta[f]indene], the Ki on mouse H3 receptor and on human H3 receptor was less than 50 nM throughout.

As for `C[C@@H]1CC[C@@H](C)N1CCCOc1ccc(-c2c3c(nc4ccnn24)CCCCC3)cc1` [10-{4-[3-(2,5-(R,R)-Dimethyl-pyrrolidin-1-yl)-propoxy]-phenyl}-6,7,8,9-tetrahydro-5H-1,4,10a-triaza-cyclohepta[f]indene], the Ki is less than 500 nM on mouse H3 receptor and less than 50 nM on human H3 receptor.

Turning to `C[C@@H]1CCCN1CCCOc1ccc(-c2c3c(nc4ccnn24)CCCCC3)cc1` [10-{4-[3-(2-(R)-Methyl-pyrrolidin-1-yl)-propoxy]-phenyl}-6,7,8,9-tetrahydro-5H-1,4,10a-triaza-cyclohepta[f]indene], the Ki at mouse H3 receptor and on human H3 receptor was less than 50 nM throughout.

For `CC1CCCN1CCCOc1ccc(-c2c3c(nc4ccnn24)CCCCC3)cc1` (stereo not drawn) [10-{4-[3-(2-Methyl-pyrrolidin-1-yl)-propoxy]-phenyl}-6,7,8,9-tetrahydro-5H-1,4,10a-triaza-cyclohepta[f]indene], the Ki at mouse H3 receptor and at human H3 receptor was less than 50 nM each time.

As to `c1ccc2c(-c3ccc(OCCCN4CCCC4)cc3)c3c(nc2c1)CCCCC3` [11-[4-(3-Pyrrolidin-1-yl-propoxy)-phenyl]-7,8,9,10-tetrahydro-6H-cyclohepta[b]quinoline], the inhibition constant (Ki) was less than 500 nM on mouse H3 receptor and less than 50 nM on human H3 receptor.

On to `CN(C)[C@@H]1CCN(CCc2cc3cc(-c4c5c(nc6ccnn46)CCC5)ccc3o2)C1` [(1-{2-[5-(6,7-Dihydro-5H-1,4,8a-triaza-s-indacen-8-yl)-benzofuran-2-yl]-ethyl}-pyrrolidin-3-yl)-(R)-dimethyl-amine], for which the Ki on mouse H3 receptor and on human H3 receptor was less than 500 nM in each case.

Consider `CCN(CC)CCCOc1ccc(-c2c3c(nc4ccnn24)CCCCC3)cc1` [Diethyl-{3-[4-(6,7,8,9-tetrahydro-5H-1,4,10a-triaza-cyclohepta[f]inden-10-yl)-phenoxy]-propyl}-amine], for which the Ki at mouse H3 receptor is less than 500 nM; on human H3 receptor, less than 50 nM.

For the compound `CN(C)CCCOc1ccc(-c2c3c(nc4ccnn24)CCCC3)cc1` [Dimethyl-{3-[4-(5,6,7,8-tetrahydro-pyrazolo[5,1-b]quinazolin-9-yl)-phenoxy]-propyl}-amine], the figures for the Ki at mouse H3 receptor and at human H3 receptor were less than 500 nM and less than 50 nM, respectively.

For `CN(CCCOc1ccc(-c2c3c(nc4ccnn24)CCCCC3)cc1)Cc1ccco1` [Furan-2-ylmethyl-methyl-{3-[4-(6,7,8,9-tetrahydro-5H-1,4,10a-triaza-cyclohepta[f]inden-10-yl)-phenoxy]-propyl}-amine], the Ki on mouse H3 receptor is less than 500 nM; at human H3 receptor it was less than 5000 nM.

Take `CN(C)CCCOc1ccc(-c2c3c(nc4ccnn24)CCC3)cc1` [{3-[4-(6,7-Dihydro-5H-1,4,8a-triaza-s-indacen-8-yl)-phenoxy]-propyl}-dimethyl-amine]: the Ki is less than 500 nM at mouse H3 receptor and less than 50 nM on human H3 receptor.
